The assay has as its system rhIFNγ stimulated STAT-3 phosphorylation in the A549 human epithelial cell line. Briefly: A549 Cell Assay: Inhibition of pSTAT3. The assay is classed as cell-based. The following applies: Homo sapiens; A549 cells. As for the experimental part:
A549 Cell Assay: Inhibition of pSTAT3
An assay measuring the efficacy of JAK inhibitors on the functional response of recombinant human interferon γ (rhIFNγ) stimulated STAT-3 phosphorylation in the A549 human epithelial cell line.
A549 cells (ATCC #CCL-185), were plated at 30,000 cells/well in 96 well flat bottomed tissue culture plates (BD#353072) in 200 μL of growth medium (DMEM, Pfizer media prep, with 10% Fetal Bovine Serum, Sigma #F4135, 2 mM L-Glutamine, Pfizer media prep, 100 U/mL penicillin, Pfizer media prep, and 200 μg/ml streptomycin, Pfizer media prep), and cultured at 37° C., 5% CO2 incubator for 18 hours. Growth medium was removed by vacuum aspiration (V&P Scientific #vp187 bp-60), and 90 μL of pre-warmed assay medium (DMEM with 0.2% BSA, Miltenyi #130-091-376) was added to each well and incubated for 15 minutes at 37° C. 10 μL of vehicle control or test compound (final concentration range of 0.3 nM to 10 μM with 0.1% DMSO) was added to the cells. Plates were incubated at 37° C. for 1 hour. After compound incubation, 10 μL of 220 ng/mL recombinant human IFNγ (R&D Systems #285-IF, final rhIFNγ concentration of 20 ng/mL) was added to the cells and plates were incubated for 30 minutes at 37° C. Wells containing A549 cells, medium with 0.1% DMSO and no rhIFNγ were used as background controls. After rhIFNγ stimulation, media was aspirated from each well and 35 μL/well of iced-cold MSD lysis buffer containing protease and phosphatase inhibitors from Phospho-STAT3 Tyr705 assay kit (Meso-Scale Discovery #K150DID) was added to each well. Plates were incubated at 4° C. with shaking for 30 minutes. Cell lysates were assayed following the MSD Phospho-STAT3 Tyr705 assay kit protocol to detect pSTAT3.
Data were collected and transformed into percent inhibition and calculated using the following formula: […]
Molecule `CCN(c1ccccc1CNc1nc(-c2cc(F)c(O)cc2CC(F)(F)F)cc2[nH]nc(C(=O)NC)c12)S(=O)(=O)CC` [Example 1, 4-({2-[Ethyl(ethylsulfonyl)amino]benzyl}amino)-6-[5-fluoro-4-hydroxy-2-(2,2,2-trifluoroethyl)phenyl]-N-methyl-1H-pyrazolo[4,3-c]pyridine-3-carboxamide] registered an IC50 of 67.4 nM.
As for `CCc1cc(O)c(F)cc1-c1cc2[nH]nc(C(=O)NC)c2c(NCc2ccccc2N(CC)S(=O)(=O)CC)n1` [Example 2, 4-({2-[ethyl(ethylsulfonyl)amino]benzyl}amino)-6-(2-ethyl-5-fluoro-4-hydroxyphenyl)-N-methyl-1H-pyrazolo[4,3-c]pyridine-3-carboxamide], the figure is 46.8 nM.
For `CCc1cc(O)c(F)cc1-c1cc2[nH]nc(C(=O)NC)c2c(NCc2ccccc2N(C)S(=O)(=O)CC)n1` [Example 3, 6-(2-ethyl-5-fluoro-4-hydroxyphenyl)-4-({2-[(ethylsulfonyl)(methyl)amino]benzyl}amino)-N-methyl-1H-pyrazolo[4,3-c]pyridine-3-carboxamide], half-maximal inhibition (IC50) was put at 16.2 nM.
`CCc1cc(O)c(F)cc1-c1cc2[nH]nc(C(=O)NC)c2c(NCCc2ccc(O)cc2)n1` [Example 4, 6-(2-ethyl-5-fluoro-4-hydroxyphenyl)-4-{[2-(4-hydroxyphenyl)ethyl]amino}-N-methyl-1H-pyrazolo[4,3-c]pyridine-3-carboxamide] returned an IC50 of 29.7 nM.
In the case of `CCc1cc(O)c(F)cc1-c1cc2[nH]nc(C(=O)NC)c2c(NCC(C)C)n1` [Example 5, 6-(2-ethyl-5-fluoro-4-hydroxyphenyl)-N-methyl-4-[(2-methylpropyl)amino]-1H-pyrazolo[4,3-c]pyridine-3-carboxamide], the IC50 was found to be 1.7 nM.
With `CCc1cc(O)c(F)cc1-c1cc2[nH]nc(C(=O)NC)c2c(NCc2cc(Cl)ccc2N(C)S(C)(=O)=O)n1` [Example 6, 4-({5-chloro-2-[methyl(methylsulfonyl)amino]benzyl}amino)-6-(2-ethyl-5-fluoro-4-hydroxyphenyl)-N-methyl-1H-pyrazolo[4,3-c]pyridine-3-carboxamide] the figure was 23.4 nM.
With `CCc1cc(O)c(F)cc1-c1cc2[nH]nc(C(=O)NC)c2c(NCc2cc(F)ccc2N(C)S(C)(=O)=O)n1` [Example 7, 6-(2-ethyl-5-fluoro-4-hydroxyphenyl)-4-({5-fluoro-2-[methyl(methylsulfonyl)amino]benzyl}amino)-N-methyl-1H-pyrazolo[4,3-c]pyridine-3-carboxamide] the figure was 5.7 nM.
As for `CCc1cc(O)c(F)cc1-c1cc2[nH]nc(C(=O)NC)c2c(NCc2c(F)cccc2N(C)S(C)(=O)=O)n1` [Example 8, 6-(2-ethyl-5-fluoro-4-hydroxyphenyl)-4-({2-fluoro-6-[methyl(methylsulfonyl)amino]benzyl}amino)-N-methyl-1H-pyrazolo[4,3-c]pyridine-3-carboxamide], the figure is 6.4 nM; as for `CNC(=O)c1n[nH]c2cc(-c3cc(F)c(O)cc3CC(F)(F)F)nc(NCc3cc(C)ccc3N(C)S(C)(=O)=O)c12` [Example 11, 6-[5-fluoro-4-hydroxy-2-(2,2,2-trifluoroethyl)phenyl]-N-methyl-4-({5-methyl-2-[methyl(methylsulfonyl)amino]benzyl}amino)-1H-pyrazolo[4,3-c]pyridine-3-carboxamide], 72.4 nM; as for `CNC(=O)c1n[nH]c2cc(-c3cc(F)c(O)cc3CC(F)(F)F)nc(NCc3cc(Cl)ccc3N(C)S(C)(=O)=O)c12` [Example 15, 4-({5-chloro-2-[methyl(methylsulfonyl)amino]benzyl}amino)-6-[5-fluoro-4-hydroxy-2-(2,2,2-trifluoroethyl)phenyl]-N-methyl-1H-pyrazolo[4,3-c]pyridine-3-carboxamide], 92.4 nM.
In turn, `CNC(=O)c1n[nH]c2cc(-c3cc(F)c(O)cc3CC(F)(F)F)nc(NCC(C)C)c12` [Example 16, 6-[5-fluoro-4-hydroxy-2-(2,2,2-trifluoroethyl)phenyl]-N-methyl-4-[(2-methylpropyl)amino]-1H-pyrazolo[4,3-c]pyridine-3-carboxamide] showed an IC50 of 65.1 nM.
On to `CNC(=O)c1n[nH]c2cc(-c3cc(F)c(O)cc3CC(F)(F)F)nc(NCC3CCCC3)c12` [Example 17, 4-[(cyclopentylmethyl)amino]-6-[5-fluoro-4-hydroxy-2-(2,2,2-trifluoroethyl)phenyl]-N-methyl-1H-pyrazolo[4,3-c]pyridine-3-carboxamide], for which the IC50 is 174 nM.
For the molecule `CS(=O)(=O)N(CCO)c1ccccc1CNc1nc(-c2cc(F)c(O)cc2CC(F)(F)F)cc2[nH]nc(C(N)=O)c12` [Example 27, 6-[5-fluoro-4-hydroxy-2-(2,2,2-trifluoroethyl)phenyl]-4-({2-[(2-hydroxyethyl)(methylsulfonyl)amino]benzyl}amino)-1H-pyrazolo[4,3-c]pyridine-3-carboxamide], the IC50 was 874 nM. Compared with the last molecule, the IC50 is about 5-fold higher.
As for `CCc1cc(O)c(F)cc1-c1cc2[nH]nc(C(=O)NC)c2c(NCc2ccc(O)cc2N(C)S(C)(=O)=O)n1` [Example 29, 6-(2-Ethyl-5-fluoro-4-hydroxyphenyl)-4-({4-hydroxy-2-[methyl (methylsulfonyl)amino]benzyl}amino)-N-methyl-1H-pyrazolo[4,3-c]pyridine-3-carboxamide], the figure is 86.9 nM.
As to `CCc1cc(O)c(F)cc1-c1cc2[nH]nc(C(N)=O)c2c(NCc2ccc(O)cc2N(C)S(C)(=O)=O)n1` [Example 30, 6-(2-Ethyl-5-fluoro-4-hydroxyphenyl)-4-({4-hydroxy-2-[methyl(methylsulfonyl)amino]benzyl}amino)-1H-pyrazolo[4,3-c]pyridine-3-carboxamide], half-maximal inhibition (IC50) required 164 nM. This IC50 lies about 1.9-fold higher than the previous one.
Take `CNC(=O)c1n[nH]c2cc(-c3cc(F)c(O)cc3CC(F)(F)F)nc(NCc3ccccc3N(C)S(=O)(=O)c3cccc(O)c3)c12` [Example 32, 6-[5-Fluoro-4-hydroxy-2-(2,2,2-trifluoroethyl)phenyl]-4-[(2-{[(3-hydroxyphenyl)sulfonyl](methyl)amino}benzyl)amino]-N-methyl-1H-pyrazolo[4,3-c]pyridine-3-carboxamide]: the IC50 amounted to 628 nM.
For `CCN(c1ccc(O)cc1CNc1nc(-c2cc(F)c(O)cc2CC(F)(F)F)cc2[nH]nc(C(=O)NC)c12)S(C)(=O)=O` [Example 34, 4-({2-[ethyl(methylsulfonyl)amino]-5-hydroxybenzyl}amino)-6-[5-fluoro-4-hydroxy-2-(2,2,2-trifluoroethyl)phenyl]-N-methyl-1H-pyrazolo[4,3-c]pyridine-3-carboxamide], the IC50 was found to be 301 nM.
Turning to `CCN(c1ccc(O)cc1CNc1nc(-c2cc(F)c(O)cc2CC(F)(F)F)cc2[nH]nc(C(=O)NC)c12)S(=O)(=O)c1ccccc1` [Example 36, 4-({2-[ethyl(phenylsulfonyl)amino]-5-hydroxybenzyl}amino)-6-[5-fluoro-4-hydroxy-2-(2,2,2-trifluoroethyl)phenyl]-N-methyl-1H-pyrazolo[4,3-c]pyridine-3-carboxamide], the IC50 turned out to be 433 nM.
With `CNC(=O)c1n[nH]c2cc(-c3cc(F)c(O)cc3C3CC3)nc(NCc3ccccc3N(C)S(C)(=O)=O)c12` [Example 37, 6-(2-cyclopropyl-5-fluoro-4-hydroxyphenyl)-N-methyl-4-({2-[methyl(methylsulfonyl)amino]benzyl}amino)-1H-pyrazolo[4,3-c]pyridine-3-carboxamide] the figure was 47.4 nM; with `CCc1cc(O)c(F)cc1-c1cc2[nH]nc(C(=O)NC)c2c(N[C@H](C)c2ccccc2N(C)S(C)(=O)=O)n1` [Example 38, 6-(2-Ethyl-5-fluoro-4-hydroxyphenyl)-N-methyl-4-{[(1R)-1-{2-[methyl(methylsulfonyl)amino]phenyl}ethyl]amino}-1H-pyrazolo[4,3-c]pyridine-3-carboxamide], 30.8 nM; with `CCc1cc(O)c(F)cc1-c1cc2[nH]nc(C(=O)NC)c2c(N[C@@H](C)c2ccccc2N(C)S(C)(=O)=O)n1` [Example 39, 6-(2-Ethyl-5-fluoro-4-hydroxyphenyl)-N-methyl-4-{[(1S)-1-{2-[methyl(methylsulfonyl)amino]phenyl}ethyl]amino}-1H-pyrazolo[4,3-c]pyridine-3-carboxamide], 60.9 nM.
Molecule `CCc1cc(O)c(F)cc1-c1cc2[nH]nc(C(N)=O)c2c(NCc2ccccc2N(C)S(=O)(=O)c2ccccc2)n1` [Example 40, 6-(2-Ethyl-5-fluoro-4-hydroxyphenyl)-4-({2-[methyl(phenylsulfonyl)amino]benzyl}amino)-1H-pyrazolo[4,3-c]pyridine-3-carboxamide] returned an IC50 of 50 nM.
With `CN(c1ccc(O)cc1CNc1nc(-c2cc(F)c(O)cc2CC(F)(F)F)cc2[nH]nc(C(N)=O)c12)S(=O)(=O)c1ccccc1` [Example 42, 6-[5-fluoro-4-hydroxy-2-(2,2,2-trifluoroethyl)phenyl]-4-({5-hydroxy-2-[methyl(phenylsulfonyl)amino]benzyl}amino)-1H-pyrazolo[4,3-c]pyridine-3-carboxamide] the figure was 645 nM.

For orientation: IC50 means the concentration that gives 50% inhibition.

Source of the values: US10022376B2 (Pfizer Inc., priority 2014, dated 2018).
